Biological target: T1, human CRHR2-alpha (Homo sapiens, UniProt Q13324)
T1 sequence (Q13324 1-411): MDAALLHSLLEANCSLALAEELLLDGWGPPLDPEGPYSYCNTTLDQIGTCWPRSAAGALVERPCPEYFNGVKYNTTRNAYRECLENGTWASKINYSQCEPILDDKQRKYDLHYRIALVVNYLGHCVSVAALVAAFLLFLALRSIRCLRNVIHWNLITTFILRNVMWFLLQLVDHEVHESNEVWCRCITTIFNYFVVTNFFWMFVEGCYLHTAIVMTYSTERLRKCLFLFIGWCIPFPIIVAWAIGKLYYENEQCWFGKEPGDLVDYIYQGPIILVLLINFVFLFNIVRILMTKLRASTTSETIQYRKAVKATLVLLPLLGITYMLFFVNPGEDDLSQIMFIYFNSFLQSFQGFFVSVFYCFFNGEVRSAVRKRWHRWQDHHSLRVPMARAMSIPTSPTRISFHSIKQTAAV
Test: cAMP functional assay for human CRHR2 (LANCE Ultra cAMP, TR-FRET)
Format: cell-based
Details: CHO-K1 cells expressing human CRHR2-alpha, agonist human urocortin2 at EC80, cAMP; read-out: IC50 against CRHR2
Summary of the method: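 Antagonism measured in CHO-K1 cells stably expressing the receptor, serum-starved 7 h then cryopreserved. Thawed cells in HBSS buffer with 0.1% BSA, 0.5 mM IBMX, 5 mM Hepes pH 7.4 were preincubated with compound 30 min at 25° C, then stimulated 30 min with EC80 agonist: urocortin2 for CRHR2, CRF for CRHR1.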

Row | Compound | IC50 [nM]
1 | Cc1ncc(Cl)cc1C(=O)N[C@H]1CC[C@H](Cn2c(=O)n(-c3ccc(-c4cnn(C)c4)nc3)c3ccccc32)CC1 [Example 214, 5-chloro-2-methyl-N-((1r,4r)-4-((3-(6-(1-methyl-1H-pyrazol-4-yl)pyridin-3-yl)-2-oxo-2,3-dihydro-1H-benzo[d]imidazol-1-yl)methyl)cyclohexyl)nico-tinamide] | < 300
2 | Cc1ncc(Cl)cc1C(=O)N[C@H]1CC[C@H](Cn2c(=O)n(-c3cnc4c(c3)oc(=O)n4C)c3ccccc32)CC1 [Example 215, 5-chloro-2-methyl-N-((1r,4r)-4-((3-(3-methyl-2-oxo-2,3-dihydrooxazolo[4,5-b]pyridin-6-yl)-2-oxo-2,3-dihydro-1H-benzo[d]imidazol-1-yl)methyl)cyclohexyl)nicotinamide] | < 300
3 | Cc1ncc(Cl)cc1C(=O)N[C@H]1CC[C@H](Cn2c(=O)n(-c3ccc(-c4ccc(N)nc4)nc3)c3ccccc32)CC1 [Example 216] | < 300
4 | CC(=O)N1CCc2cc(-n3c(=O)n(C[C@H]4CC[C@H](NC(=O)c5cc(Cl)cnc5C)CC4)c4ccccc43)ccc2C1 [Example 218, N-((1r,4r)-4-((3-(2-acetyl-1,2,3,4-tetrahydroisoquinolin-6-yl)-2-oxo-2,3-dihydro-1H-benzo[d]imidazol-1-yl)methyl)cyclohexyl)-5-chloro-2-methylnicotinamide] | < 300
5 | Cc1ncc(Cl)cc1C(=O)N[C@H]1CC[C@H](Cn2c(=O)n(-c3ccccc3C#N)c3ccccc32)CC1 [Example 219, 5-chloro-N-((1r,4r)-4-((3-(2-cyanophenyl)-2-oxo-2,3-dihydro-1H-benzo[d]imidazol-1-yl)methyl)cyclohexyl)-2-methylnicotinamide] | < 300
6 | COc1ccc(-n2c(=O)n(C[C@H]3CC[C@H](NC(=O)c4c5ccccc5nn4C)CC3)c3ccccc32)cn1 [Example 220, N-((1r,4r)-4-((3-(6-methoxy-pyridin-3-yl)-2-oxo-2,3-dihydro-1H-benzo[d]imidazol-1-yl)methyl)cyclohexyl)-2-methyl-2H-indazole-3-carboxamide] | < 300
7 | COc1ccc(-n2c(=O)n(C[C@H]3CC[C@H](NC(=O)c4c5c(nn4C)CCCC5)CC3)c3ccccc32)cn1 [Example 221, N-((1r,4r)-4-((3-(6-methoxy-pyridin-3-yl)-2-oxo-2,3-dihydro-1H-benzo[d]imidazol-1-yl)methyl)cyclohexyl)-2-methyl-4,5,6,7-tetrahydro-2H-indazole-3-carboxamide] | < 300
8 | Cc1ncc(Cl)cc1C(=O)N[C@H]1CC[C@H](Cn2c(=O)n(-c3ccc4[nH]nc(Cl)c4c3)c3ccccc32)CC1 [Example 222, 5-chloro-N-((1r,4r)-4-((3-(3-chloro-1H-indazol-5-yl)-2-oxo-2,3-dihydro-1H-benzo[d]imidazol-1-yl)methyl)cyclohexyl)-2-methylnicotinamide] | < 300
9 | COc1ccc(-n2c(=O)n(C[C@H]3CC[C@H](NC(=O)c4cc(Cl)ccc4C)CC3)c3ccccc32)cn1 [Example 223, 5-chloro-N-((1r,4r)-4-((3-(6-methoxypyridin-3-yl)-2-oxo-2,3-dihydro-1H-benzo[d]imidazol-1-yl)methyl)cyclo-hexyl)-2-methylbenzamide] | < 300
10 | Cc1ncc(Cl)cc1C(=O)N[C@H]1CC[C@H](Cn2c(=O)n(-c3cnc4c(c3)OCC(=O)N4)c3ccccc32)CC1 [Example 224, 5-chloro-2-methyl-N-((1r,4r)-4-((2-oxo-3-(3-oxo-3,4-dihydro-2H-pyrido[3,2-b][1,4]oxazin-7-yl)-2,3-dihydro-1H-benzo[d]imidazol-1-yl)methyl)cyclohexyl)nicotinamide] | < 300
11 | CNC(=O)c1ccc(-n2c(=O)n(C[C@H]3CC[C@H](NC(=O)c4cc(Cl)cnc4C)CC3)c3cc(C)ccc32)cn1 [Example 225, 5-(3-(((1r,4r)-4-(5-chloro-2-methylnicotinamido)cyclo-hexyl)methyl)-5-methyl-2-oxo-2,3-dihydro-1H-benzo [d]imidazol-1-yl)-N-methylpicolinamide] | < 300
12 | CNC(=O)c1ccc(-n2c(=O)n(C[C@H]3CC[C@H](NC(=O)c4cc(Cl)cnc4C)CC3)c3cc(F)ccc32)cn1 [Example 226, 5-(3-(((1r,4r)-4-(5-chloro-2-methylnicotinamido)cyclo-hexyl)methyl)-5-fluoro-2-oxo-2,3-dihydro-1H-benzo[d]imidazol-1-yl)-N-methylpicolinamide] | < 300
13 | COc1ccc(-n2c(=O)n(C[C@H]3CC[C@H](NC(=O)c4cc(Br)cnc4C)CC3)c3ccccc32)cn1 [Example 227, 5-bromo-N-((1r,4r)-4-((3-(6-methoxypyridin-3-yl)-2-oxo-2,3-dihydro-1H-benzo[d]imidazol-1-yl)methyl)cyclo-hexyl)-2-methylnicotinamide] | < 300
14 | COc1ccc(-n2c(=O)n(C[C@H]3CC[C@H](NC(=O)c4cc(Cl)cnc4C(F)(F)F)CC3)c3ccccc32)cn1 [Example 228, 5-chloro-N-((1r,4r)-4-((3-(6-methoxypyridin-3-yl)-2-oxo-2,3-dihydro-1H-benzo[d]imidazol-1-yl)methyl)cyclo-hexyl)-2-(trifluoromethyl) nicotinamide] | < 300
15 | COCOCCn1nc(C)c2cc(-n3c(=O)n(C[C@H]4CC[C@H](NC(=O)c5cc(Cl)cnc5C)CC4)c4ccccc43)ccc21 [Example 229, 5-chloro-N-((1r,4r)-4-((3-(1-(2-(methoxymethoxy)ethyl)-3-methyl-1H-indazol-5-yl)-2-oxo-2,3-dihydro-1H-benzo[d]imidazol-1-yl)methyl)cyclo-hexyl)-2-methylnicotinamide] | < 300
16 | Cc1ncc(Cl)cc1C(=O)N[C@H]1CC[C@H](Cn2c(=O)n(-c3ccc4c(c3)c(C)nn4CCO)c3ccccc32)CC1 [Example 230, 5-chloro-N-((1r,4r)-4-((3-(1-(2-hydroxyethyl)-3-methyl-1H-indazol-5-yl)-2-oxo-2,3-dihydro-1H-benzo[d]imidazol-1-yl)methyl)cyclohexyl)-2-methylnicotinamide] | < 300
17 | COc1ccc(-n2c(=O)n(C[C@H]3CC[C@H](NC(=O)c4cc(Cl)cnc4C)CC3)c3ccccc32)c(C#N)c1 [Example 231, 5-chloro-N-((1r,4r)-4-((3-(2-cyano-4-methoxyphenyl)-2-oxo-2,3-dihydro-1H-benzo[d]imidazol-1-yl)methyl)cyclo-hexyl)-2-methylnicotinamide] | < 300
18 | Cc1ncc(Cl)cc1C(=O)N[C@H]1CC[C@H](Cn2c(=O)n(-c3ccc4nnn(C)c4c3)c3ccccc32)CC1 [Example 232, 5-chloro-2-methyl-N-((1r,4r)-4-((3-(1-methyl-1H-benzo[d] [1,2,3]triazol-6-yl)-2-oxo-2,3-dihydro-1H-benzo[d]imidazol-1-yl)methyl)cyclohexyl) nicotinamide] | < 300
19 | Cc1ncc(Cl)cc1C(=O)N[C@H]1CC[C@H](Cn2c(=O)n(-c3ccccc3[N+](=O)[O-])c3ccccc32)CC1 [Example 233, 5-chloro-2-methyl-N-((1r,4r)-4-((3-(2-nitrophenyl)-2-oxo-2,3-dihydro-1H-benzo[d]imidazol-1-yl)methyl)cyclo-hexyl)nicotinamide] | < 300
20 | Cc1ncc(Cl)cc1C(=O)N[C@H]1CC[C@H](Cn2c(=O)n(-c3ccccc3Cl)c3ncccc32)CC1 [Example 234, 5-chloro-N-((1r,4r)-4-((3-(2-chlorophenyl)-2-oxo-2,3-dihydro-1H-imidazo[4,5-b]pyridin-1-yl)methyl)cyclo-hexyl)-2-methylnicotinamide] | < 300

From patent US11802120B2, “Fused cyclic urea derivatives as CRHR2 antagonist” (RaQualia Pharma Inc., priority 2018, dated 2023)
